Source: PMC9069370, “Integrated Design of a Membrane‐Lytic Peptide‐Based Intravenous Nanotherapeutic Suppresses Triple‐Negative Breast Cancer” (Advanced Science, 2022)
Peptide text beside a SMILES is read from it.

How the values were obtained:
U2OS = assay type: cell-based, human; conditions: 72 h
HEK293T = assay: cells; assay type: cell-based, human; conditions: 72 h
[1] = Tryptophan fluorescent binding assay; conditions: tryptophan fluorescence; 50 µM peptide, lipid titrated 0-5000 µM; phosphate buffered saline 1X, pH 7.4; values as lipid per peptide
Description: 50 µM ACP peptides and varied concentrations (concentrations: 0, 25, 50, 100, 150, 200, 250, 500, 1250, and 2500 µM) of POPC or POPC:POPG (3:1 ratio) large unilamellar vesicles were prepared in 10 mM phosphate buffer (pH 7.0). The solutions were measured after 1 h of incubation. Excitation was fixed at 280 nm (slit 9 nm) and emission was collected from 300 to 450 nm (slit 9 nm). The spectra were recorded using Cytation 5 Cell Imaging Multi‐Mode Reader from BioTek and were averaged by three scans.
Lipid Concentration-induced
Name Sequence† 50% Peptide Binding (L/P)
Extended Data Table 3 | Tryptophan binding assay. […]
peptide binding onto liposome. 50 µM peptides were fixed and incubated with titrated lipid (POPC vesicle […]
phosphate buffered saline (1X, pH 7.4). The lipid concentration that causes 50 % peptide binding was determined using tryptophan fluorescent binding assay and the values are shown as lipid per peptide.

[2] = ANTS/DPX liposome leakage assay; conditions: for Peptide Concentration-induced 50 % ANTS/DPX leakage at pH 4.8 (L/P), 3POPC/1POPG Vesicle / Peptide Concentration-induced 50 % ANTS/DPX leakage at pH 4.8 (L/P), POPC Vesicle / Peptide Concentration-induced 50 % ANTS/DPX leakage at pH 7.4 (L/P), 3POPC/1POPG Vesicle / Peptide Concentration-induced 50 % ANTS/DPX leakage at pH 7.4 (L/P), POPC Vesicle: 0.5 mM vesicles, peptide 0-20 µM, 3 h incubation, lipid per peptide; for Peptide Concentration-induced 50 % ANTS/DPX leakage at pH 4.8 (L/P), 3POPC/1POPG Vesicle / Peptide Concentration-induced 50 % ANTS/DPX leakage at pH 4.8 (L/P), POPC Vesicle: HCl-adjusted PBS 1X pH 4.8; for Peptide Concentration-induced 50 % ANTS/DPX leakage at pH 7.4 (L/P), 3POPC/1POPG Vesicle / Peptide Concentration-induced 50 % ANTS/DPX leakage at pH 7.4 (L/P), POPC Vesicle: PBS 1X pH 7.4, high ratio = more potent
Description: Vesicle preparation: 5 mM ANTS and 12.5 mM DPX were entrapped in 0.1 µm diameter extruded vesicles (either POPC or POPC/POPG at a ratio of 3:1) with lipids. Gel filtration chromatography of Sephadex G‐100 was used to remove external free ANTS/DPX from LUVs with entrapped contents. LUVs were diluted to 0.5 mM and used to measure the leakage activity by the addition of aliquots of ACPs. Leakage was measured after 3 h incubation. 10% Triton was used as the positive control to measure the maximum leakage of the vesicle. Fluorescence emission spectra were recorded using excitation and emission wavelength of 350 and 510 nm for ANTS/DPX using a BioTek Synergy H1 Hybrid Multi‐Mode Reader.
Peptide Concentration-induced Peptide Concentration-induced
Name Sequence† 50 % ANTS/DPX leakage 50 % ANTS/DPX leakage at pH 7.4 (L/P) at pH 4.8 (L/P)
POPC Vesicle 3POPC/1POPG Vesicle POPC Vesicle 3POPC/1POPG Vesicle […]
Extended Data Table 4 | Peptide concentration-induced 50 % ANTS/DPX liposome leakage. 0.5 mM POPC and 3POPC/1POPG vesicles were fixed and incubated with titrated peptide concentration (0, 0.02, […]
hydrochloric acid-adjusted phoshate buffered saline (1X, pH 4.8). The values are shown as lipid per

HMLER = assay: cells; assay type: cell-based, human; conditions: 72 h
Text: (§1) […], and MCF-10A cells were maintained in MEGM with supplements and growth factors bovine pituitary extract, hydrocortisone, human epidermal growth factor, insulin, and gentamicin/amphotericin-B.

MCF‐10A = assay: cells; assay type: cell-based, human; conditions: 72 h
Text: as §1

HMLER‐shEcad = assay: cells; assay type: cell-based, human; conditions: 72 h
Text: as §1

Compound	IC50 (U2OS) [µM]	IC50 (HEK293T) [µM]	Lipid Concentration-induced 50% Peptide Binding (L/P), 3POPC/1POPG Vesicle [1] [L/P]	Lipid Concentration-induced 50% Peptide Binding (L/P), POPC Vesicle [1] [L/P]	Peptide Concentration-induced 50 % ANTS/DPX leakage at pH 4.8 (L/P), 3POPC/1POPG Vesicle [2] [L/P]	Peptide Concentration-induced 50 % ANTS/DPX leakage at pH 4.8 (L/P), POPC Vesicle [2] [L/P]	Peptide Concentration-induced 50 % ANTS/DPX leakage at pH 7.4 (L/P), 3POPC/1POPG Vesicle [2] [L/P]	Peptide Concentration-induced 50 % ANTS/DPX leakage at pH 7.4 (L/P), POPC Vesicle [2] [L/P]	IC50 (HMLER) [µM]	IC50 (MCF‐10A) [µM]	IC50 (HMLER‐shEcad) [µM]	change of ANTS/DPX dye leakage / liposome selectivity at pH 4.8 ([2]; pH = 4.8 compared with physiological pH, anionic versus neutral liposomes)
CC(C)C[C@H](NC(=O)CN)C(=O)N[C@@H](CC(C)C)C(=O)N[C@@H](CCC(=O)O)C(=O)N[C@@H](CC(C)C)C(=O)N[C@@H](CC(C)C)C(=O)N[C@@H](CCCCN)C(=O)N[C@@H](CC(C)C)C(=O)N[C@@H](CC(C)C)C(=O)N[C@@H](CC(C)C)C(=O)N[C@@H](CCCCN)C(=O)N[C@@H](C)C(=O)N[C@@H](C)C(=O)NCC(=O)N[C@@H](Cc1c[nH]c2ccccc12)C(N)=O [EKK] (H-GLLELLKLLLKAAGW-NH2)	12.2 ± 1.84	3.35 ± 0.49	0.63	1.50	219	60	235	1095	1.72 ± 0.21	1.7 ± 0.11	1.19 ± 0.4	–
CC(C)C[C@H](NC(=O)CN)C(=O)N[C@@H](CC(C)C)C(=O)N[C@@H](Cc1c[nH]cn1)C(=O)N[C@@H](CC(C)C)C(=O)N[C@@H](CC(C)C)C(=O)N[C@@H](CCC(=O)O)C(=O)N[C@@H](CC(C)C)C(=O)N[C@@H](CC(C)C)C(=O)N[C@@H](CC(C)C)C(=O)N[C@@H](CCC(=O)O)C(=O)N[C@@H](C)C(=O)N[C@@H](C)C(=O)NCC(=O)N[C@@H](Cc1c[nH]c2ccccc12)C(N)=O [HEE] (H-GLLHLLELLLEAAGW-NH2)	47.5 ± 11	10.2 ± 0.2	0.50	0.58	122	100	792	876	6.5 ± 0.71	58 ± 41	4.95 ± 0.49	–
CC(C)C[C@H](NC(=O)CN)C(=O)N[C@@H](CC(C)C)C(=O)N[C@@H](Cc1c[nH]cn1)C(=O)N[C@@H](CC(C)C)C(=O)N[C@@H](CC(C)C)C(=O)N[C@@H](CCC(=O)O)C(=O)N[C@@H](CC(C)C)C(=O)N[C@@H](CC(C)C)C(=O)N[C@@H](CC(C)C)C(=O)N[C@@H](Cc1c[nH]cn1)C(=O)N[C@@H](C)C(=O)N[C@@H](C)C(=O)NCC(=O)N[C@@H](Cc1c[nH]c2ccccc12)C(N)=O [HEH] (H-GLLHLLELLLHAAGW-NH2)	106 ± 14	8.8 ± 1.7	3.50	0.88	24	173	505	995	28.6 ± 10.8	> 200	11 ± 1.06	increased selectivity for neutral bilayers
CC(C)C[C@H](NC(=O)CN)C(=O)N[C@@H](CC(C)C)C(=O)N[C@@H](Cc1c[nH]cn1)C(=O)N[C@@H](CC(C)C)C(=O)N[C@@H](CC(C)C)C(=O)N[C@@H](CCC(=O)O)C(=O)N[C@@H](CC(C)C)C(=O)N[C@@H](CC(C)C)C(=O)N[C@@H](CC(C)C)C(=O)N[C@@H](CCCCN)C(=O)N[C@@H](C)C(=O)N[C@@H](C)C(=O)NCC(=O)N[C@@H](Cc1c[nH]c2ccccc12)C(N)=O [HEK] (H-GLLHLLELLLKAAGW-NH2)	143 ± 80.3	6.95 ± 1.63	0.46	0.44	411	97	386	755	2.35 ± 1.06	29.8 ± 7.35	3.45 ± 2.19	–
CC(C)C[C@H](NC(=O)CN)C(=O)N[C@@H](CC(C)C)C(=O)N[C@@H](Cc1c[nH]cn1)C(=O)N[C@@H](CC(C)C)C(=O)N[C@@H](CC(C)C)C(=O)N[C@@H](Cc1c[nH]cn1)C(=O)N[C@@H](CC(C)C)C(=O)N[C@@H](CC(C)C)C(=O)N[C@@H](CC(C)C)C(=O)N[C@@H](CCC(=O)O)C(=O)N[C@@H](C)C(=O)N[C@@H](C)C(=O)NCC(=O)N[C@@H](Cc1c[nH]c2ccccc12)C(N)=O [HHE] (H-GLLHLLHLLLEAAGW-NH2)	53.2 ± 5.3	18.4 ± 3.75	0.75	1.00	113	143	411	842	16.7 ± 2.26	> 200	10.8 ± 0.78	–
CC(C)C[C@H](NC(=O)CN)C(=O)N[C@@H](CC(C)C)C(=O)N[C@@H](Cc1c[nH]cn1)C(=O)N[C@@H](CC(C)C)C(=O)N[C@@H](CC(C)C)C(=O)N[C@@H](Cc1c[nH]cn1)C(=O)N[C@@H](CC(C)C)C(=O)N[C@@H](CC(C)C)C(=O)N[C@@H](CC(C)C)C(=O)N[C@@H](Cc1c[nH]cn1)C(=O)N[C@@H](C)C(=O)N[C@@H](C)C(=O)NCC(=O)N[C@@H](Cc1c[nH]c2ccccc12)C(N)=O [HHH] (H-GLLHLLHLLLHAAGW-NH2)	185 ± 7	30.6 ± 4.81	0.82	0.46	50	173	469	1133	21.1 ± 6.93	79 ± 11.3	9.5 ± 0.99	–
CC(C)C[C@H](NC(=O)CN)C(=O)N[C@@H](CC(C)C)C(=O)N[C@@H](Cc1c[nH]cn1)C(=O)N[C@@H](CC(C)C)C(=O)N[C@@H](CC(C)C)C(=O)N[C@@H](Cc1c[nH]cn1)C(=O)N[C@@H](CC(C)C)C(=O)N[C@@H](CC(C)C)C(=O)N[C@@H](CC(C)C)C(=O)N[C@@H](CCCCN)C(=O)N[C@@H](C)C(=O)N[C@@H](C)C(=O)NCC(=O)N[C@@H](Cc1c[nH]c2ccccc12)C(N)=O [HHK] (H-GLLHLLHLLLKAAGW-NH2)	12.7 ± 1.91	5.25 ± 1.48	0.20	0.68	111	149	160	1133	3.15 ± 0.07	5.6 ± 0.14	1.75 ± 0.21	–
